# Positions of bridges follow the written chain, without caps; N, C: chain ends. Non-standard residues stand in square brackets, D forms with d. Residues, ends and D or L forms follow the SMILES beside them. *: point of attachment. Pent4ynoyl = C#CCCC(=O)*; Nva = CCC[C@H](N)C(=O)O; Abu = CC[C@H](N)C(=O)O
# How the values were obtained:
# Test in all cases: cell-based
# hNav1.3 = hNav1.3 (Homo sapiens, UniProt Q9NY46); conditions: IonWorks Quattro, use-dependent block, hNav1.3; read-out: IWQ Use Nav1.3
# Sequence of hNav1.3 (Q9NY46 whole entry, looked up): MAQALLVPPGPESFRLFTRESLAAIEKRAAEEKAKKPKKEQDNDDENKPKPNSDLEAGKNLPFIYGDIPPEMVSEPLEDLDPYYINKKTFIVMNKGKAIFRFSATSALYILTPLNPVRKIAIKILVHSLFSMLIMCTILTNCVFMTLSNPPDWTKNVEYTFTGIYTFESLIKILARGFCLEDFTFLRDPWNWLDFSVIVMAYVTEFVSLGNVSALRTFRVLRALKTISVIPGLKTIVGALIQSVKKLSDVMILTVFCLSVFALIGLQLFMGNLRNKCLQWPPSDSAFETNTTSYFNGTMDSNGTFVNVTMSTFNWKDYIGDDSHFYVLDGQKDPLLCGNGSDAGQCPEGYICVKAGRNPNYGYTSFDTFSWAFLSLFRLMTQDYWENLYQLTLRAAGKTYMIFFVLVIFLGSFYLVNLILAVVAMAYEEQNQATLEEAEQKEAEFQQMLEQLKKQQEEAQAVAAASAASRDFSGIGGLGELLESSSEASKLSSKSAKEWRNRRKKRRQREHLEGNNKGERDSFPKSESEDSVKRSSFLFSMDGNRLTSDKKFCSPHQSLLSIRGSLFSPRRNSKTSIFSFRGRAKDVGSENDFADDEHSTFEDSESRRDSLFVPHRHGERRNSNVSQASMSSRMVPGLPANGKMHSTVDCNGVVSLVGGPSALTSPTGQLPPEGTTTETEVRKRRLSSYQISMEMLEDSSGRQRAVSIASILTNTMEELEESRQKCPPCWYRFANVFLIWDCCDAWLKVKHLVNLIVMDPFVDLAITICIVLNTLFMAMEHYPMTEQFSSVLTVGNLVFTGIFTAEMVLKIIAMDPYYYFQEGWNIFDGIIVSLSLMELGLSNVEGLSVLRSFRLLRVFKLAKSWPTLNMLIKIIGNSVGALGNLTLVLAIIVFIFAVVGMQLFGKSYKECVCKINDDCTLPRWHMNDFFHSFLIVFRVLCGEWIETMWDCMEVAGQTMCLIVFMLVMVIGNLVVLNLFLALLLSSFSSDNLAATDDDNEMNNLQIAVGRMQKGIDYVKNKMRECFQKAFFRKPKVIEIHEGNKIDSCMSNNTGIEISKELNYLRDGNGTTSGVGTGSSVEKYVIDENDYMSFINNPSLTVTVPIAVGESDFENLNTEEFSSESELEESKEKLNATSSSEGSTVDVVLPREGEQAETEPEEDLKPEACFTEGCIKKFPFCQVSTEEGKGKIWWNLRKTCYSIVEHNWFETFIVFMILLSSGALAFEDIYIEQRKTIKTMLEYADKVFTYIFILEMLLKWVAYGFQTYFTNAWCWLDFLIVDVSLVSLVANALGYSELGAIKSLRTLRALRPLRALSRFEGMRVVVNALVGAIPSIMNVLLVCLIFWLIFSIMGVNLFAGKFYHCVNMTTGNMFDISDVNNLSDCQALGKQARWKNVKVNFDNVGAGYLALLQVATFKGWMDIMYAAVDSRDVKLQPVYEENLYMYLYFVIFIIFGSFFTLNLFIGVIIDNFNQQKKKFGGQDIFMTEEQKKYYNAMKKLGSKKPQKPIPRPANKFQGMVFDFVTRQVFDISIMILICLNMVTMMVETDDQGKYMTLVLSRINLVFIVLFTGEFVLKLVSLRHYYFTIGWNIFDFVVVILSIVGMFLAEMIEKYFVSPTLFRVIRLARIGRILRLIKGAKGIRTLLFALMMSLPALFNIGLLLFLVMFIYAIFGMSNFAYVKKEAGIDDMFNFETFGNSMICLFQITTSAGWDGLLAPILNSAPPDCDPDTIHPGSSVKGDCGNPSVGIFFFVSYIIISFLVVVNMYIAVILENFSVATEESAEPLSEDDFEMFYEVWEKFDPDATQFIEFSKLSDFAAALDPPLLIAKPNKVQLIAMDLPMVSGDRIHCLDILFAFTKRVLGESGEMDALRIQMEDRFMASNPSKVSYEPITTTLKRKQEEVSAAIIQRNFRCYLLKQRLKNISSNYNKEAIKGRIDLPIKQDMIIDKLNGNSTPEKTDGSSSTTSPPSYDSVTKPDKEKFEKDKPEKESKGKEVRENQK
# hNav1.7 = hNav1.7 (Homo sapiens, UniProt Q15858); format: cell-based; conditions: IonWorks Quattro, use-dependent block, hNav1.7; read-out: IWQ Use Nav1.7
# Sequence of hNav1.7 (Q15858 whole entry, looked up): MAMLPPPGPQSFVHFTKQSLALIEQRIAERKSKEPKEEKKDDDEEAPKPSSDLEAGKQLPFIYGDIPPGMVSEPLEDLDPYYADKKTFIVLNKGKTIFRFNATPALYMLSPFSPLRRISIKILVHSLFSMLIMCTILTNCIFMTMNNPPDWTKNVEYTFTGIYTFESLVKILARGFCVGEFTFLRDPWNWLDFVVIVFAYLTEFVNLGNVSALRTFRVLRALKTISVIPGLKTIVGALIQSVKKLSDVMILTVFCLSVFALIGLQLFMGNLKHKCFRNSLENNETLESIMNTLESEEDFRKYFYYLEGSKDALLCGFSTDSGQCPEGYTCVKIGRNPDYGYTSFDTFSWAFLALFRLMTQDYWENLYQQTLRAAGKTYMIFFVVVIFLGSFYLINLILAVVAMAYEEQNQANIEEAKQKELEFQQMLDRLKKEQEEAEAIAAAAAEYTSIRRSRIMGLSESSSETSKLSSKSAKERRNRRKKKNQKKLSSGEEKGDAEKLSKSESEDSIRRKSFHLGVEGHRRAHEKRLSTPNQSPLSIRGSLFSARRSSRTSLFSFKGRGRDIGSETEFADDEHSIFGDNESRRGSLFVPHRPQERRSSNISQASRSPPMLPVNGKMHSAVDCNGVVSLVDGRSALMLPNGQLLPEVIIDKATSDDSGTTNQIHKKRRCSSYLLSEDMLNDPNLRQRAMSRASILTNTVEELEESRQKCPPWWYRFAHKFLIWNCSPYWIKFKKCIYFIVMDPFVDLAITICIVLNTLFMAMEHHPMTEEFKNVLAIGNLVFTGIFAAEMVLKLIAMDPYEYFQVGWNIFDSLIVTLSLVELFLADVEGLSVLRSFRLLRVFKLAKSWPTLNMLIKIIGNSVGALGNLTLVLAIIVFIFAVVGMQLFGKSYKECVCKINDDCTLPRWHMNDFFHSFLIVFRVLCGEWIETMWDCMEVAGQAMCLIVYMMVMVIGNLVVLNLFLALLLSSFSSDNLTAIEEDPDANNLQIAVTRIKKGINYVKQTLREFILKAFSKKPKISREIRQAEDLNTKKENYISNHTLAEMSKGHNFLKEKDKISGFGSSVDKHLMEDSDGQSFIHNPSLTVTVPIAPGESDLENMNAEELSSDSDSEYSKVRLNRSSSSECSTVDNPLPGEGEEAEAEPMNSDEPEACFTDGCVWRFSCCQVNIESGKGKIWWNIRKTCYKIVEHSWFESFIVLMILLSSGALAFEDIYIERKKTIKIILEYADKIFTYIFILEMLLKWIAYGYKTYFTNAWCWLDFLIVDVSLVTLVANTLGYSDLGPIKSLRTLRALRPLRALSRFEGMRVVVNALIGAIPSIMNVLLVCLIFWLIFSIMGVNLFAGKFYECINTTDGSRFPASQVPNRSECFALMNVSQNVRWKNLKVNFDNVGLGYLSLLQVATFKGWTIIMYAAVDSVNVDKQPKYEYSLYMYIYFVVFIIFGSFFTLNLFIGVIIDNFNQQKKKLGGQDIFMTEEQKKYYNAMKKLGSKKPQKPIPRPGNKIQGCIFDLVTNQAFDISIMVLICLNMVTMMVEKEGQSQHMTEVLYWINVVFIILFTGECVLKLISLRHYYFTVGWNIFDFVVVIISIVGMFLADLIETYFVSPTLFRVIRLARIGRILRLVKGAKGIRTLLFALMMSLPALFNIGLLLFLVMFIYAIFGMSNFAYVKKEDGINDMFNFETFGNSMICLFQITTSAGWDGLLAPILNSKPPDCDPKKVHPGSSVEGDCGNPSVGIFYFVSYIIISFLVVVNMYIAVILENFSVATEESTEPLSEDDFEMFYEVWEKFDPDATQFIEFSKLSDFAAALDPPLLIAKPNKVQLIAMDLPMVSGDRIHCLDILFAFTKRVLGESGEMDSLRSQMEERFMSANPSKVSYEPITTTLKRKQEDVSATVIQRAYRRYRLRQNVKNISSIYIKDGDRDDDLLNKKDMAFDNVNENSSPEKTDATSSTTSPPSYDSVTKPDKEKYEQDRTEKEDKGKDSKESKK
# hNav1.5 = hNav1.5 (Homo sapiens, UniProt Q14524); conditions: IonWorks Quattro, use-dependent block, hNav1.5; read-out: IWQ Use Nav1.5
Structure (SMILES),IC50 (hNav1.3),IC50 (hNav1.7),IC50 (hNav1.5)
C#CC[C@@H]1NC(=O)[C@@H]2CCCN2C(=O)[C@H]([C@@H](C)CC)NC(=O)[C@@H]2CSSC[C@@H]3NC(=O)[C@H](C(C)C)NC(=O)[C@H](CC(C)C)NC(=O)[C@H](CC(N)=O)NC(=O)[C@@H]4CCCN4C(=O)[C@H](CCCNC(=N)N)NC(=O)[C@H](CSSC[C@H](NC(=O)[C@@H](N)CC(=O)O)C(=O)N[C@@H](CC(C)C)C(=O)NCC(=O)N[C@@H](C)C(=O)N[C@@H](Cc4ccccc4)C(=O)N[C@@H](CCCNC(=N)N)C(=O)N[C@@H](CCCCN)C(=O)N2)NC(=O)[C@H](CSSC[C@@H](C(=O)N[C@@H](CCCCN)C(=O)N[C@@H](Cc2ccc(O)cc2)C(=O)N[C@H](C(=O)N[C@@H](Cc2ccccc2)C(N)=O)C(C)C)NC(=O)[C@H](Cc2c[nH]c4ccccc24)NC(=O)[C@H](CCCNC(=N)N)NC(=O)[C@H](Cc2c[nH]cn2)NC(=O)[C@H](CC(C)C)NC(=O)[C@H](CCCNC(=N)N)NC(=O)[C@H](CO)NC3=O)NC(=O)[C@H](CCCCN)NC(=O)[C@H](CC(=O)O)NC(=O)[C@H](CC(N)=O)NC1=O [compound 803],120 nM,130 nM,36500 nM
"C#CCCC(=O)NCCCC[C@@H]1NC(=O)[C@H](CC(=O)O)NC(=O)[C@@H]2CCCN2C(=O)[C@H]([C@@H](C)CC)NC(=O)[C@@H]2CSSC[C@@H]3NC(=O)[C@H](C(C)C)NC(=O)[C@H](CC(C)C)NC(=O)[C@H](CC(N)=O)NC(=O)[C@@H]4CCCN4C(=O)[C@H](CCCNC(=N)N)NC(=O)[C@H](CSSC[C@H](NC(=O)[C@@H](N)CC(=O)O)C(=O)N[C@@H](CC(C)C)C(=O)NCC(=O)N[C@@H](CC)C(=O)N[C@@H](Cc4ccccc4)C(=O)N[C@@H](CCCNC(=N)N)C(=O)N[C@@H](CCCCN)C(=O)N2)NC(=O)[C@H](CSSC[C@@H](C(=O)N[C@@H](CCCCN)C(=O)N[C@@H](Cc2ccc(O)cc2)C(=O)N[C@H](C(=O)N[C@@H](Cc2ccccc2)C(N)=O)C(C)C)NC(=O)[C@H](Cc2c[nH]c4ccccc24)NC(=O)[C@H](CCCCN)NC(=O)[C@H](Cc2c[nH]cn2)NC(=O)[C@H]([C@@H](C)O)NC(=O)[C@H](CCCNC(=N)N)NC(=O)[C@H](CO)NC3=O)NC(=O)[C@H](CCCCN)NC(=O)[C@H](CC(=O)O)NC1=O [compound 804] (H-DCLG[Abu]FRKCIPDK(Pent4ynoyl)DKCCRPNLVCSRTHKWCKYVF-NH2; disulfide 2-17, 9-23, 16-30)",350 nM,500 nM,> 50000 nM
"C#CCCC(=O)NCCCC[C@@H]1NC(=O)[C@H](CC(=O)O)NC(=O)[C@@H]2CCCN2C(=O)[C@H]([C@@H](C)CC)NC(=O)[C@@H]2CSSC[C@@H]3NC(=O)[C@H](C(C)C)NC(=O)[C@H](CC(C)C)NC(=O)[C@H](CC(N)=O)NC(=O)[C@@H]4CCCN4C(=O)[C@H](CCCNC(=N)N)NC(=O)[C@H](CSSC[C@H](NC(=O)[C@@H](N)CC(=O)O)C(=O)N[C@@H](CC(C)C)C(=O)NCC(=O)N[C@@H](CCC)C(=O)N[C@@H](CC(C)C)C(=O)N[C@@H](CCCNC(=N)N)C(=O)N[C@@H](CCCCN)C(=O)N2)NC(=O)[C@H](CSSC[C@@H](C(=O)N[C@@H](CCCCN)C(=O)N[C@@H](Cc2ccc(O)cc2)C(=O)N[C@H](C(=O)N[C@@H](Cc2ccccc2)C(N)=O)C(C)C)NC(=O)[C@H](Cc2c[nH]c4ccccc24)NC(=O)[C@H](CCCNC(=N)N)NC(=O)[C@H](Cc2c[nH]cn2)NC(=O)[C@H]([C@@H](C)O)NC(=O)[C@H](CCCNC(=N)N)NC(=O)[C@H](CO)NC3=O)NC(=O)[C@H](CCCCN)NC(=O)[C@H](CC(=O)O)NC1=O [compound 805] (H-DCLG[Nva]LRKCIPDK(Pent4ynoyl)DKCCRPNLVCSRTHRWCKYVF-NH2; disulfide 2-17, 9-23, 16-30)",270 nM,310 nM,37500 nM
"C#CCCC(=O)NCCCC[C@@H]1NC(=O)[C@H](CC(=O)O)NC(=O)[C@@H]2CCCN2C(=O)[C@H]([C@@H](C)CC)NC(=O)[C@@H]2CSSC[C@@H]3NC(=O)[C@H](C(C)C)NC(=O)[C@H](CC(C)C)NC(=O)[C@H](CC(N)=O)NC(=O)[C@@H]4CCCN4C(=O)[C@H](CCCNC(=N)N)NC(=O)[C@H](CSSC[C@H](NC(=O)[C@@H](N)CC(=O)O)C(=O)N[C@@H](CC(C)C)C(=O)NCC(=O)N[C@@H](CCC)C(=O)N[C@@H](CC(C)C)C(=O)N[C@@H](CCCNC(=N)N)C(=O)N[C@@H](CCCCN)C(=O)N2)NC(=O)[C@H](CSSC[C@@H](C(=O)N[C@@H](CCCCN)C(=O)N[C@@H](Cc2ccc(O)cc2)C(=O)N[C@H](C(=O)N[C@@H](Cc2ccccc2)C(N)=O)C(C)C)NC(=O)[C@H](Cc2c[nH]c4ccccc24)NC(=O)[C@H](CCCCN)NC(=O)[C@H](Cc2c[nH]cn2)NC(=O)[C@H]([C@@H](C)O)NC(=O)[C@H](CCCNC(=N)N)NC(=O)[C@H](CO)NC3=O)NC(=O)[C@H](CCCCN)NC(=O)[C@H](CC(=O)O)NC1=O [compound 806] (H-DCLG[Nva]LRKCIPDK(Pent4ynoyl)DKCCRPNLVCSRTHKWCKYVF-NH2; disulfide 2-17, 9-23, 16-30)",390 nM,290 nM,34200 nM
"C#CCCC(=O)N[C@@H](CC(=O)O)C(=O)N[C@H]1CSSC[C@@H]2NC(=O)[C@@H]3CSSC[C@@H](C(=O)N[C@@H](CCCCN)C(=O)N[C@@H](Cc4ccc(O)cc4)C(=O)N[C@H](C(=O)N[C@@H](Cc4ccccc4)C(N)=O)C(C)C)NC(=O)[C@H](Cc4c[nH]c5ccccc45)NC(=O)[C@H](CCCNC(=N)N)NC(=O)[C@H](Cc4c[nH]cn4)NC(=O)[C@H]([C@@H](C)O)NC(=O)[C@H](CCCNC(=N)N)NC(=O)[C@H](CO)NC(=O)[C@H](CSSC[C@H](NC(=O)[C@H](CCCCN)NC(=O)[C@H](CCCNC(=N)N)NC(=O)[C@H](CC(C)C)NC(=O)[C@H](CC)NC(=O)CNC(=O)[C@H](CC(C)C)NC1=O)C(=O)N[C@@H]([C@@H](C)CC)C(=O)N1CCC[C@H]1C(=O)N[C@@H](CC(=O)O)C(=O)N[C@@H](CC)C(=O)N[C@@H](CC(=O)O)C(=O)N[C@@H](CCCCN)C(=O)N3)NC(=O)[C@H](C(C)C)NC(=O)[C@H](CC(C)C)NC(=O)[C@H](CC(N)=O)NC(=O)[C@@H]1CCCN1C(=O)[C@H](CCCNC(=N)N)NC2=O [compound 807] (Pent4ynoyl-DCLG[Abu]LRKCIPD[Abu]DKCCRPNLVCSRTHRWCKYVF-NH2; disulfide 2-17, 9-23, 16-30)",900 nM,540 nM,36800 nM
"C#CCCC(=O)NCCCC[C@@H]1NC(=O)[C@H](CC(=O)O)NC(=O)[C@@H]2CCCN2C(=O)[C@H]([C@@H](C)CC)NC(=O)[C@@H]2CSSC[C@@H]3NC(=O)[C@H](C(C)C)NC(=O)[C@H](CC(C)C)NC(=O)[C@H](CC(N)=O)NC(=O)[C@@H]4CCCN4C(=O)[C@H](CCCNC(=N)N)NC(=O)[C@H](CSSC[C@H](NC(=O)[C@@H](N)CC(=O)O)C(=O)N[C@@H](CC(C)C)C(=O)NCC(=O)N[C@@H](CC)C(=O)N[C@@H](CC(C)C)C(=O)N[C@@H](CCCNC(=N)N)C(=O)N[C@@H](CCCCN)C(=O)N2)NC(=O)[C@H](CSSC[C@@H](C(=O)N[C@@H](CCCCN)C(=O)N[C@@H](Cc2ccc(O)cc2)C(=O)N[C@H](C(=O)N[C@@H](Cc2ccccc2)C(N)=O)C(C)C)NC(=O)[C@H](Cc2c[nH]c4ccccc24)NC(=O)[C@H](CCC(=O)O)NC(=O)[C@H](Cc2c[nH]cn2)NC(=O)[C@H]([C@@H](C)O)NC(=O)[C@H](CCCNC(=N)N)NC(=O)[C@H](CO)NC3=O)NC(=O)[C@H](CCCCN)NC(=O)[C@H](CC(=O)O)NC1=O [compound 808] (H-DCLG[Abu]LRKCIPDK(Pent4ynoyl)DKCCRPNLVCSRTHEWCKYVF-NH2; disulfide 2-17, 9-23, 16-30)",4100 nM,1800 nM,> 5000 nM
"CC[C@H](C)[C@@H]1NC(=O)[C@@H]2CSSC[C@@H]3NC(=O)[C@H](C(C)C)NC(=O)[C@H](CC(C)C)NC(=O)[C@H](CC(N)=O)NC(=O)[C@@H]4CCCN4C(=O)[C@H](CCCNC(=N)N)NC(=O)[C@H](CSSC[C@H](NC(=O)[C@H](CC(=O)O)NC(=O)[C@H](CO)NC(=O)CN)C(=O)N[C@@H](CC(C)C)C(=O)NCC(=O)N[C@@H](C)C(=O)N[C@@H](Cc4ccccc4)C(=O)N[C@@H](CCCNC(=N)N)C(=O)N[C@@H](CCCCN)C(=O)N2)NC(=O)[C@H](CSSC[C@@H](C(=O)N[C@@H](CCCCN)C(=O)N[C@@H](Cc2ccc(O)cc2)C(=O)N[C@H](C(=O)N[C@@H](Cc2ccccc2)C(N)=O)C(C)C)NC(=O)[C@H](Cc2c[nH]c4ccccc24)NC(=O)[C@H](CCCNC(=N)N)NC(=O)[C@H](Cc2c[nH]cn2)NC(=O)[C@H]([C@@H](C)O)NC(=O)[C@H](CCCNC(=N)N)NC(=O)[C@H](CO)NC3=O)NC(=O)[C@H](CCCCN)NC(=O)[C@H](CC(=O)O)NC(=O)[C@H](CC(N)=O)NC(=O)[C@H](CC(=O)O)NC(=O)[C@@H]2CCCN2C1=O [compound 811] (H-GSDCLGAFRKCIPDNDKCCRPNLVCSRTHRWCKYVF-NH2; disulfide 4-19, 11-25, 18-32)",300 nM,300 nM,> 5000 nM
"CC[C@H](C)[C@@H]1NC(=O)[C@@H]2CSSC[C@@H]3NC(=O)[C@H](C(C)C)NC(=O)[C@H](CC(C)C)NC(=O)[C@H](CC(N)=O)NC(=O)[C@@H]4CCCN4C(=O)[C@H](CCCNC(=N)N)NC(=O)[C@H](CSSC[C@H](NC(=O)[C@H](CC(=O)O)NC(=O)[C@H](CO)NC(=O)CN)C(=O)N[C@@H](CC(C)C)C(=O)NCC(=O)N[C@@H](C)C(=O)N[C@@H](CC(C)C)C(=O)N[C@@H](CCCNC(=N)N)C(=O)N[C@@H](CCCCN)C(=O)N2)NC(=O)[C@H](CSSC[C@@H](C(=O)N[C@@H](CCCCN)C(=O)N[C@@H](Cc2ccc(O)cc2)C(=O)N[C@H](C(=O)N[C@@H](Cc2ccccc2)C(N)=O)C(C)C)NC(=O)[C@H](Cc2c[nH]c4ccccc24)NC(=O)[C@H](CCCNC(=N)N)NC(=O)[C@H](Cc2c[nH]cn2)NC(=O)[C@H]([C@@H](C)O)NC(=O)[C@H](CCCNC(=N)N)NC(=O)[C@H](CO)NC3=O)NC(=O)[C@H](CCCCN)NC(=O)[C@H](CC(=O)O)NC(=O)[C@H](CC(N)=O)NC(=O)[C@H](CC(=O)O)NC(=O)[C@@H]2CCCN2C1=O [compound 812] (H-GSDCLGALRKCIPDNDKCCRPNLVCSRTHRWCKYVF-NH2; disulfide 4-19, 11-25, 18-32)",200 nM,200 nM,> 5000 nM

# From US9340590B2 (priority 2011, dated 2016)
